By IC50 is commonly meant the concentration needed to halve the response being measured.

Data on 45 compounds can be found in US20200317642A1, “AMINE-SUBSTITUTED HETEROCYCLIC COMPOUNDS AS EHMT2 INHIBITORS AND DERIVATIVES THEREOF” (Epizyme, Inc., priority 2017, published 2020).

In this assay the test system is H3K9me2 in MDA-MB-231 cells. Briefly: MDA-MB-231 H3K9me2 in-cell western assay (EHMT2 ICW). It counts as cell-based. The settings on record: Homo sapiens. The source says: MDA-MB-231 cell line was purchased from ATCC (Manassas, Va., USA). RPMI/Glutamax medium, Penicillin-Streptomycin, Heat Inactivated Fetal Bovine Serum, and D-PBS were purchased from Life Technologies (Grand Island, N.Y., USA). Odyssey blocking buffer, 800 CW goat anti-mouse IgG (H+L) antibody, and Licor Odyssey Infrared Scanner were purchased from Licor Biosciences, Lincoln, Nebr., USA. H3K9me2 mouse monoclonal antibody (Cat #1220) was purchased from Abcam (Cambridge, Mass., USA). 16% Paraformaldehyde was purchased from Electron Microscopy Sciences, Hatfield, Pa., USA). MDA-MB-231 cells were maintained in complete growth medium (RPMI supplemented with 10% v/v heat inactivated fetal bovine serum) and cultured at 37° C. under 5% C02. UNC0638 was purchased from Sigma-Aldrich (St. Louis, Mo., USA).
General Procedure for MDA-MB-231 HEK9me2 in-Cell Western Assay.
Compound (100 nL) was added directly to 384-well cell plate. MDA-MB-231 cells (ATCC) were seeded in assay medium (RPMI/Glutamax supplemented with 10% v/v heat inactivated fetal bovine serum and 1% Penicillin/Streptomycin, Life Technologies) at a concentration of 3,000 cells per well to a Poly-D-Lysine coated 384-well cell culture plate with 50 μL per well. Plates were incubated at 37° C., 5% CO2 for 48 hours (BD Biosciences 356697). […] After the incubation, 50 μL per well of 8% paraformaldehyde (Electron Microscopy Sciences) in PBS was added to the plates and incubated at room temperature for 20 minutes. Plates were transferred to a Biotek 406 plate washer and washed 2 times with 100 μL per well of wash buffer (1×PBS containing 0.3% Triton X-100 (v/v)). Next, 60 μL per well of Odyssey blocking buffer (Licor Biosciences) was added to each plate and incubated for 1 hour at room temperature. Blocking buffer was removed and 20 μL of monoclonal primary antibody α-H3K9me2 (Abcam) diluted 1:800 in Odyssey buffer with 0.1% Tween 20 (v/v) were added and plates were incubated overnight (16 hours) at 4° C. Plates were washed 5 times with 100 μL per well of wash buffer. Next 20 μL per well of secondary antibody was added (1:500 800 CW donkey anti-mouse IgG (H+L) antibody (Licor Biosciences), 1:1000 DRAQ5 (Cell Signaling Technology) in Odyssey buffer with 0.1% Tween 20 (v/v)) and incubated for 1 hour at room temperature. The plates were washed 5 times with 100 μL per well wash buffer then 2 times with 100 μL per well of water. Plates were allowed to dry at room temperature then imaged on a Licor Odyssey Infrared Scanner (Licor Biosciences) which measured integrated intensity at 700 nm and 800 nm wavelengths. Both 700 and 800 channels were scanned.
First, the ratio for each well was determined by:
Each plate included fourteen control wells of DMSO only treatment (Minimum Inhibition) as well as fourteen control wells (background wells) for maximum inhibition treated with control compound UNC0638 (Background wells).
The average of the ratio values for each well was calculated and used to determine the percent inhibition for each test well in the plate. Control compound was serially diluted three-fold in DMSO for a total of 10 test concentrations beginning at 1 μM. Percent inhibition was calculated as: […]
IC50 curves were generated using triplicate wells per concentration of compound. The IC50 is the concentration of compound at which measured methylation is inhibited by 50% as interpolated from the dose response curves. IC50 values were calculated using a non-linear regression (variable slope-four parameter fit model) with by the following formula:
where Top is fixed at 100% and Bottom is fixed to 0%, [I]=concentration of inhibitor, IC50=half maximal inhibitory concentration and n=Hill Slope.

[1] abbreviates: Table 3, read-out: EHMT2 ICW (IC50 μM).
The mark [2] stands for this setting: Table 3A, read-out: ICW (IC50 μM).

Where two headings read alike, the source gives them in different places. Some results are limits rather than exact numbers.

`CNc1cc(C)nc(Nc2ccc(Br)c(CNCCN3CCCC3)c2)n1` [Compound 1, 2-N-[4-bromo-3-([[2-(pyrrolidin-1-yl)ethyl]amino]methyl)phenyl]-4-N,6-dimethylpyrimidine-2,4-diamine]: the IC50 under setting [1] was 1 to 10 µM.

With `CNc1cc(C)nc(Nc2ccc(Cl)c(C(=O)NCC3COC3)c2)n1` [Compound 2, 2-chloro-5-[[4-methyl-6-(methylamino)pyrimidin-2-yl]amino]-N-(oxetan-3-ylmethyl)benzamide], the IC50 under setting [1] is above 10 µM. Take `CNc1cc(C)nc(Nc2ccc(Cl)c(C(=O)NCC3CCC3)c2)n1` [Compound 3]: the IC50 under setting [1] is above 10 µM. Still for that read-out and setting: to `CNc1cc(C)nc(Nc2ccc(Cl)c(C(=O)NCC3CC3)c2)n1` [Compound 4] belongs above 10 µM; to `CNc1cc(C)nc(Nc2ccc(Cl)c(C(=O)Nc3cccnn3)c2)n1` [Compound 5], above 10 µM; to `CNc1cc(C)nc(Nc2ccc(Cl)c(C(=O)Nc3ncco3)c2)n1` [Compound 6], 1 to 10 µM.

For the compound `CNc1cc(C)nc(Nc2ccc(Cl)c(C(=O)NCCN3CCCC3)c2)n1` [Compound 7], the IC50 under setting [1] lay within 1 to 10 µM.

Turning to `CNc1cc(C)nc(Nc2ccc(Cl)c(C(=O)NC3CCOCC3)c2)n1` [Compound 8], the IC50 under setting [1] was above 10 µM.

Regarding `CCCCNC(=O)c1cc(Nc2nc(C)cc(NC)n2)ccc1Cl` [Compound 9], under setting [1], the IC50 was in the range of 1 to 10 µM. Still for that read-out and setting: to `CNc1cc(C)nc(Nc2ccc(Cl)c(C(=O)Nc3ccccc3)c2)n1` [Compound 10] belongs above 10 µM; to `CNc1cc(C)nc(Nc2ccc(C3CC3)c(CNCCN3CCCC3)c2)n1` [Compound 11, 2-N-[4-cyclopropyl-3-([[2-(pyrrolidin-1-yl)ethyl]amino]methyl)phenyl]-4-N,6-dimethylpyrimidine-2,4-diamine], 1 to 10 µM. Same read-out and setting: next, `CNc1cc(C)nc(Nc2ccc(Cl)c(C(=O)Nc3cscn3)c2)n1` [Compound 13]: 1 to 10 µM; `CNc1cc(C)nc(Nc2ccc(Cl)c(C(=O)Nc3cocn3)c2)n1` [Compound 14, 2-chloro-5-[[4-methyl-6-(methylamino)pyrimidin-2-yl]amino]-N-(1,3-oxazol-4-yl)benzamide]: above 10 µM; `CNc1cc(C)nc(Nc2ccc(Cl)c(C(=O)Nc3cn(C)cn3)c2)n1` [Compound 15]: above 10 µM.

For the compound `CNc1cc(C)nc(Nc2ccc(OC)c(C#CCN3CCNCC3)c2)n1` [Compound 28, 2-N-[4-methoxy-3-[3-(piperazin-1-yl)prop-1-yn-1-yl]phenyl]-4-N,6-dimethylpyrimidine-2,4-diamine], under setting [1], the IC50 is 1 to 10 µM. Regarding `CNc1cc(C)nc(Nc2ccc(C)c(C(=O)Nc3cc(C#N)ccn3)c2)n1` [Compound 30], the IC50 under setting [1] is above 10 µM. For the compound `CNc1cc(C)nc(Nc2ccc(OC)c(CNCCN3CCC[C@H]3C)c2)n1` [Compound 31], the IC50 under setting [1] lay within 1 to 10 µM.

Regarding `CNc1cc(C)nc(Nc2ccc(OC)c(CNCCN3CCC[C@@H]3C)c2)n1` [Compound 32], under setting [1], the IC50 was in the range of 1 to 10 µM. For the compound `CNc1cc(C)nc(Nc2ccc(C)c(C(=O)Nc3ncn(C)n3)c2)n1` [Compound 33], the IC50 under setting [1] is above 10 µM. `CNc1cc(C)nc(Nc2ccc(OC)c(CNCCN3CC(C)C3)c2)n1` [Compound 35]: the IC50 under setting [1] is above 10 µM. Take `CNc1cc(C)nc(Nc2ccc(C)c(C(=O)Nc3cn(C4CC4)cn3)c2)n1` [Compound 36]: the IC50 under setting [1] is above 10 µM. The same measure, in the same setting: to `CNc1cc(C)nc(Nc2ccc(C)c(C(=O)Nc3c[nH]cn3)c2)n1` [Compound 37] belongs above 10 µM; to `CNc1cc(C)nc(Nc2ccc(OC)c(CNCCN3CC[C@@H](C)C3)c2)n1` [Compound 38], above 10 µM. As to `CNc1cc(C)nc(Nc2ccc(OC)c(CNCCN3CC[C@H](C)C3)c2)n1` [Compound 39], the IC50 under setting [1] fell in the range of 1 to 10 µM. The same measure, in the same setting: next, `CNc1cc(C)nc(Nc2ccc(OC)c(OC[C@H](O)CN3CCCCC3)c2)n1` [Compound 40]: above 10 µM; `CNc1cc(C)nc(Nc2ccc(OC)c(OC[C@H](O)CN3CC4(CC4)C3)c2)n1` [Compound 41]: above 10 µM. As to `CNc1cc(C)nc(Nc2ccc(OC)c(CNC[C@@H](C)N3CCCC3)c2)n1` [Compound 42], under setting [1], the IC50 is 1 to 10 µM. Turning to `CNc1cc(C)nc(Nc2ccc(OC)c(CNC[C@H](C)N3CCCC3)c2)n1` [Compound 43], under setting [1], the IC50 was above 10 µM. On the same count and under the same terms, to `CNc1cc(C)nc(Nc2ccc(OC)c(C#CC[N+](C)(C)CCN)c2)n1` [Compound 45] belongs above 10 µM; to `CNc1cc(C)nc(Nc2ccc(OC)c(CN[C@@H](C)CN3CCCC3)c2)n1` [Compound 47], 1 to 10 µM; to `CNc1cc(C)nc(Nc2ccc(OC)c(CN[C@H](C)CN3CCCC3)c2)n1` [Compound 48], 1 to 10 µM. Same read-out and setting: next, `CNc1cc(C)nc(Nc2ccc(OC)c(C#CCNCCN(C)C)c2)n1` [Compound 49]: 1 to 10 µM. Consider `CNCc1cn(-c2cc(Nc3nc(C)cc(NC)n3)ccc2Cl)nn1` [Compound A1], for which the IC50 under setting [2] is 0.01 to 0.1 µM. Still for that read-out and setting: next, `CNC1=Nc2cc(-n3cc([C@H]4CCCN4)nn3)c(Cl)cc2C12CCC2` [Compound A2R, (R)-5′-chloro-N-methyl-6′-(4-(pyrrolidin-2-yl)-1H-1,2,3-triazol-1-yl)spiro[cyclobutane-1,3′-indol]-2′-amine]: 0.01 to 0.1 µM; `CNC1=Nc2cc(-n3cc([C@@H]4CCCN4)nn3)c(Cl)cc2C12CCC2` [Compound A2S, (S)-5′-chloro-N-methyl-6′-(4-(pyrrolidin-2-yl)-1H-1,2,3-triazol-1-yl)spiro[cyclobutane-1,3′-indol]-2′-amine]: above 1 µM. The same measure, in the same setting: next, `CNC1=Nc2cc(-n3cc(C4CCCN4)nn3)c(Cl)cc2C12CCC2` (stereo not drawn) [Compound A2]: 0.1 to 1 µM; `CNCc1cn(-c2c(OC)ccc(Nc3nc(C)cc(NC)n3)c2F)nn1` [Compound A3, N2-(2-fluoro-4-methoxy-3-[4-[(methylamino)methyl]-1H-1,2,3-triazol-1-yl]phenyl)-N4,6-dimethylpyrimidine-2,4-diamine]: 0.01 to 0.1 µM; `CNc1cc(C)nc(Nc2ccc(OC)c(-n3cc([C@H]4CCCN4)nn3)c2F)n1` [Compound A4R]: 0.01 to 0.1 µM. The same measure, in the same setting: to `CNc1cc(C)nc(Nc2ccc(OC)c(-n3cc([C@@H]4CCCN4)nn3)c2F)n1` [Compound A4S] belongs 0.1 to 1 µM. Take `CNc1cc(C)nc(Nc2ccc(OC)c(-n3cc(C4CCCN4)nn3)c2F)n1` (stereo not drawn) [Compound A4]: the IC50 under setting [2] was 0.01 to 0.1 µM.

For the compound `CNc1cc(C)nc(Nc2ccc(OC)c(-n3cc(CNC(C)C)cn3)c2F)n1` [Compound A5], the IC50 under setting [2] is above 1 µM.

Consider `CNc1cc(C)nc(Nc2ccc(Cl)c(-n3cc(CN)cn3)c2Cl)n1` [Compound A6], for which, under setting [2], the IC50 was in the range of 0.01 to 0.1 µM.

Regarding `CCNCc1cnn(-c2c(OC)ccc(Nc3nc(C)cc(NC)n3)c2F)c1` [Compound A7], the IC50 under setting [2] fell in the range of 0.1 to 1 µM. In the case of `CNCc1cnn(-c2c(OC)ccc(Nc3nc(NC)cc(C(C)C)n3)c2F)c1` [Compound A8, N^2-(2-fluoro-4-methoxy-3-[4-[(methylamino)methyl]-1H-pyrazol-1-yl]phenyl)-N^4-methyl-6-(propan-2-yl)pyrimidine-2,4-diamine], the IC50 under setting [2] lay in the range of 0.01 to 0.1 µM. As for `CNc1cc(C)nc(Nc2ccc(OC)c(-n3ncc4c3CCNC4)c2F)n1` [Compound A9, N2-(2-fluoro-4-methoxy-3-(4,5,6,7-tetrahydro-1H-pyrazolo[4,3-c]142yridine-1-yl)phenyl)-N4,6-dimethylpyrimidine-2,4-diamine], the IC50 under setting [2] was 0.1 to 1 µM.
